The test system of experiment [1] is control yeast pYES2 (yeast with pYES2.1 vector). Put plainly: Production of ω-3 fatty acids from exogenous ω-6 fatty acids in the control yeast pYES2. It is filed as cell-based, S. cerevisiae. As to conditions: ω-3 product (ALA, SDA, ETA, EPA, DHA) of the fed substrate, GC. As to the method:
(§1) The plasmids containing the full length O3 genes in the yeast expression vector pYES2.1/V5-His-TOPO were transformed into yeast S. cerevisiae. The positive transformants were selected for uracil auxotrophy on DOB-U agar plates. To characterize the ω-3 desaturase enzyme activity, positive clones and the control (yeast with pYES2.1 vector) were cultured overnight in DOB-U liquid medium at 28° C. and then grown in induction medium (DOB-U+Gal+Raf) containing 100 μM of various exogenously supplied fatty acid substrates at 16° C. for 4 days. The whole yeast cells expressing Pythium ω-3 genes were harvested by centrifugation and washed twice with distilled water. Then the yeast cells were directly transmethylated with methanolic HCl (3N) at 80° C. for 1 hour. The resultant methyl esters were extracted with hexane and analyzed by gas chromatography (GC). GC was carried out as described in WO 2005/083053.

Experiment [2] has as its system ω-3 desaturase from Pythium irregulare. It is filed as cell-based, S. cerevisiae. As to conditions: for Conversion (%) / Product (%): yeast transformant pYES2-O3; for Conversion (%): conversion of ω-6 substrate into the corresponding ω-3 product; for Product (%): ω-3 product (ALA, SDA, ETA, EPA, DHA) of the fed substrate, 100 μM, 16° C., 4 days, GC; for desaturation by ω-3 desaturase from Pythium (in words): expression in yeast, exogenously supplied ω-6 fatty acids. As to the method:
as §1

For the compound `CC/C=C\C/C=C\C/C=C\C/C=C\C/C=C\CCCCCC(=O)O` [DPA, docosapentaenoic acid], the “Product (%)” value in experiment [1] amounted to 0.03%; in experiment [2], 0.20%. Also, the “Conversion (%)” value in experiment [2] was 2.01%.

In the case of `CCCCC/C=C\C/C=C\C/C=C\CCCCC(=O)O` [GLA, γ-linolenic acid], the “Product (%)” value in experiment [1] is given as 0%. Besides, in experiment [2], the “desaturation by ω-3 desaturase from Pythium (in words)” value (from here on “desaturation by ω-3 desaturase”) is given as “not able to desaturase”, the “Conversion (%)” value amounted to 0% and the “Product (%)” value is 0%.

As for `CCCCC/C=C\C/C=C\CCCCCCCC(=O)O` [LA, linoleic acid], in experiment [1], the “Product (%)” value turned out to be 0%. Besides, in experiment [2], the “desaturation by ω-3 desaturase” value was “not able to desaturase”, the “Conversion (%)” value turned out to be 0% and the “Product (%)” value was found to be 0%.

As to `CCCCC/C=C\C/C=C\C/C=C\CCCCCCC(=O)O` [DGLA, dihomo-γ-linolenic acid], the “Product (%)” value in experiment [1] worked out at 0%. For the same compound, in experiment [2], the “desaturation by ω-3 desaturase” value is recorded as “desaturates”, the “Conversion (%)” value was 9.65% and the “Product (%)” value is 1.90%.
